Key:
HLA-A*11:01 = HLA-A*11:01 (Homo sapiens, UniProt P04439, A114D/D185E/E176A/F33Y/L180Q/S129P/T187R); test: REVEAL Epitope Discovery System in vitro MHC-peptide binding assay, HLA-A*11:01; conditions: binding normalized to positive control peptide set at 100%, score >50 considered good or high affinity binding
Procedure: (§1) Actual binding affinities for certain HLA class I alleles (A*02:01, A*03:01, A*11:01, and B*08:01) were assessed in vitro for exemplary overlapping 9 amino acid peptide sequences within a portion of the 26 amino acid junction region spanning the CD28 and 4-1BB junction. Specifically, assessment was of a series of overlapping 9-mer peptides derived from the sequence […] (set forth in SEQ ID NO: 7), which contains a portion of the CD28 transmembrane domain and 4-1BB costimulatory domain spanning the junction between the domains (bond joining the two amino acids noted in underline). In addition, a series of overlapping 9-mer peptides of each of a number of different variants of this portion also were assessed, each variant containing a mutation or mutations in this region as described in Example 2.
(§2) The various 9-mer overlapping peptides were synthesized and their purity tested by MALDI-TOF Mass Spectrometry. The synthetic peptides were then incubated with recombinant MHC molecules to assess binding properties using the REVEAL Epitope Discovery System, which is a high-throughput binding assay that measures the degree to which each peptide is able to stabilize a ternary MHC-peptide complex (ProImmune, Oxford, United Kingdom). Each peptide was separately tested for this ability with respect to each of the HLA class I alleles, normalized to the degree observed for a positive control (known T cell epitope for the relevant allele). The results are reported as a score, in which the binding was normalized to the positive control peptide set at 100%.

HLA-B*08:01 = HLA-B*08:01 (Homo sapiens, UniProt P01889, A93T/A95T/D138N/E176V/E187T/K202T/Q94N/R180D/S35A/V36M/Y33D/Y91F); test: REVEAL Epitope Discovery System in vitro MHC-peptide binding assay, HLA-B*08:01; conditions: binding normalized to positive control peptide set at 100%, score >50 considered good or high affinity binding
Procedure: as §1, §2

[1] = tested on: HLA class I alleles (A*02:01, A*03:01, A*11:01, and B*08:01); test: Comparison of in silico and in vitro binding of variant junction peptides to HLA class I alleles (summary); parameters: species or system human; conditions: without higher binding affinity to another HLA allele or for another peptide
Procedure: as §1, §2
The results were compared to predicted binding (IC50) values obtained for binding of the same peptide:MHC complex, using the in silico prediction methods as described in Example 2. Since the maximum IC50 value predicted was about 50,000, the IC50 values were log transformed, subtracted from LOG(50000) and divided by LOG(50000) to obtain a normalized in silico score ((Log(50000)−log IC50)/Log(50000)). […]

In Vitro Score (A*11:01) (HLA-A*11:01) | In Vitro Score (B*08:01) (HLA-B*08:01) | predicted or actual binding affinity or score for at least one HLA allele and/or at least one peptide [1] | Molecule
51.80 | 0.20 |  | AFIIFWVAR [junction 9-mer, peptide 2, mutation K29A]
34.90 | 0.30 |  | AFIIFWVHR [junction 9-mer, peptide 2, mutation K29H]
54.00 | 0.30 |  | AFIIFWVSR [junction 9-mer, peptide 2, mutation K29S]
0.90 | 0.20 |  | FIIFWVHRG [junction 9-mer, peptide 3, mutation K29H]
8.90 |  |  | FWVARGRKK [junction 9-mer, peptide 6, mutation K29A]
34.90 | 0.00 |  | IFWVARGRK [junction 9-mer, peptide 5, mutation K29A]
36.60 | 0.10 |  | IFWVHRGRK [junction 9-mer, peptide 5, mutation K29H]
69.70 | 2.20 |  | IFWVKRGAK [junction 9-mer, peptide 5, mutation R32A]
30.90 | 3.20 |  | IFWVKRGHK [junction 9-mer, peptide 5, mutation R32H]
61.10 | 58.30 |  | IFWVKRGLK [junction 9-mer, peptide 5, mutation R32L]
45.90 | 0.10 |  | IFWVKRGNK [junction 9-mer, peptide 5, mutation R32N]
47.90 | 1.20 |  | IFWVKRGSK [junction 9-mer, peptide 5, mutation R32S]
61.30 | 0.20 |  | IFWVQRGAK [junction 9-mer, peptide 5, mutation K29Q/R32A]
67.50 | 0.10 |  | IFWVQRGNK [junction 9-mer, peptide 5, mutation K29Q/R32N]
128.50 | 0.00 |  | IFWVQRGRK [junction 9-mer, peptide 5, mutation K29Q]
39.20 | 0.00 |  | IFWVSRGRK [junction 9-mer, peptide 5, mutation K29S]
70.60 | 0.30 |  | IIFWVARGR [junction 9-mer, peptide 4, mutation K29A]
77.50 | 0.20 |  | IIFWVHRGR [junction 9-mer, peptide 4, mutation K29H]
22.60 | 0.90 |  | IIFWVKRGA [junction 9-mer, peptide 4, mutation R32A]
32.40 | 1.70 |  | IIFWVKRGL [junction 9-mer, peptide 4, mutation R32L]

In Vitro Score (A*11:01) (HLA-A*11:01) | In Vitro Score (B*08:01) (HLA-B*08:01) | predicted or actual binding affinity or score for at least one HLA allele and/or at least one peptide [1] | Molecule
42.10 | 0.90 |  | IIFWVKRGN [junction 9-mer, peptide 4, mutation R32N]
54.50 | 0.00 |  | IIFWVKRGR
100.00 | 0.40 |  | IIFWVKRGS [junction 9-mer, peptide 4, mutation R32S]
35.20 | 0.40 |  | IIFWVLRGR [junction 9-mer, peptide 4, mutation K29L]
56.50 | 0.20 |  | IIFWVQRGA [junction 9-mer, peptide 4, mutation K29Q/R32A]
72.80 | 0.10 |  | IIFWVQRGR [junction 9-mer, peptide 4, mutation K29Q]
68.90 | 0.00 |  | IIFWVSRGR [junction 9-mer, peptide 4, mutation K29S]
109.20 | 0.30 |  | VAFIIFWVK
34.60 | 0.10 |  | VAFIIFWVR [junction 9-mer, peptide 1, mutation K29R]
25.10 | 0.10 |  | VAFIIFWVS [junction 9-mer, peptide 1, mutation K29S]
13.80 | 32.40 |  | WVARGRKKL [junction 9-mer, peptide 7, mutation K29A]
4.60 | 34.10 |  | WVKRGAKKL [junction 9-mer, peptide 7, mutation R32A]
2.80 | 47.60 |  | WVKRGHKKL [junction 9-mer, peptide 7, mutation R32H]
4.10 | 65.90 |  | WVKRGNKKL [junction 9-mer, peptide 7, mutation R32N]
11.80 | 56.10 |  | WVKRGSKKL [junction 9-mer, peptide 7, mutation R32S]
10.70 | 32.00 |  | WVQRGNKKL [junction 9-mer, peptide 7, mutation K29Q/R32N]
12.80 | 45.10 |  | WVQRGRKKL [junction 9-mer, peptide 7, mutation K29Q]
 |  | reduced | R31H: variant CAR junction region, replacement numbered per SEQ ID NO:5 (protein, CD28-4-1BB) FWVLVVVGGVLACYSLLVTVAFIIFWVKRGHKKLLYIFKQPFMRPVQTTQEEDGCSCRFPEEEEGGCEL
 |  | reduced | L34S: variant CAR junction region, replacement numbered per SEQ ID NO:5 (protein, CD28-4-1BB) FWVLVVVGGVLACYSLLVTVAFIIFWVKRGRKKSLYIFKQPFMRPVQTTQEEDGCSCRFPEEEEGGCEL
 |  | reduced | L34A: variant CAR junction region, replacement numbered per SEQ ID NO:5 (protein, CD28-4-1BB) FWVLVVVGGVLACYSLLVTVAFIIFWVKRGRKKALYIFKQPFMRPVQTTQEEDGCSCRFPEEEEGGCEL

Source: patent publication US11266739B2, “Methods and compositions for adoptive cell therapy” (Juno Therapeutics, Inc., priority 2014, dated 2022)
